One compound from patent US20040023295A1, “Methods and systems for analyzing complex biological systems” (priority 2001, published 2004) can be followed below.

The experiment concerns Saccharomyces cerevisiae wild type strain BY4743. Nature of the experiment: AF1 combined gene expression and metabolite data mapped to KEGG reactions and pathways. Format: cell-based. The source says:
In AF1, two different technologies were utilized: gene expression analysis (for examination of mRNA expression) and metabolite analysis. […] As noted previously, existing metabolic databases may be helpful in practicing the methods and systems of the present invention, but many databases include limitations that make their use in data analysis and pathway mapping less than straightforward. […] This caveat to KEGG makes it difficult to pinpoint the correct pathway when attempting to link a gene to a specific pathway. The pathway score indicates how meaningful the mapping is, or how likely it is to be correctly indicative of the pathway involved in the perturbation under examination. […] Degree of perturbation can be calculated, for example, based on a number of standard deviations from a norm, and included in an equation such as the one shown above, so that not only the number of pathways is taken into account, but also accounts for the amount of gene transcript or compound present as compared to a control. […] KEGG links 676 compounds measured in AF1 to a total of 92 pathways. Of the 676 compounds under consideration, 77 were detected in the AF1 samples. […]

Take `C[C@@H]1[C@H](O)[C@@H](C)/C=C/C=C/C=C/C=C/C=C/C=C/C=C/[C@H](O[C@@H]2O[C@H](C)[C@@H](O)[C@H](N)[C@@H]2O)C[C@@H]2O[C@](O)(C[C@@H](O)C[C@@H](O)[C@H](O)CC[C@@H](O)C[C@@H](O)CC(=O)O[C@H]1C)C[C@H](O)[C@H]2C(=O)O` [Amphoteracin B]: the “# Reactions (title: Number Of Pathways Having at Least One Enzyme and One Compound Perturbed)” value turned out to be 37; the “# Reactions Having an Enzyme and at Least One Compound Perturbed” value turned out to be 54.
